molecular target: T1, hTSHR (Homo sapiens, UniProt P16473); assay: hTSHR TR-FRET cAMP Assay (inhibition of M22-stimulated cAMP production); format: cell-based; conditions: Expi293F Inducible cells stably expressing hTSHR; cAMP HTRF; stimulated with EC80 of anti-TSHR antibody M22; 15 min compound preincubation, 30 min at 37° C.; read-out: Activity (IC50 bins)
T1 construct: expressed in transfected cells
Procedure, shortened: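 Readout was a cAMP HTRF ratio of 655/620 nm after lysis, scaled between the EC80 M22 signal (0% inhibition) and no-agonist vehicle (100%). Frozen induced Expi293F-hTSHR cells saw test compounds (0.5% DMSO) for 15 min at 37 °C before 30 min of M22 stimulation at EC80.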

T1 sequence (P16473 21-764): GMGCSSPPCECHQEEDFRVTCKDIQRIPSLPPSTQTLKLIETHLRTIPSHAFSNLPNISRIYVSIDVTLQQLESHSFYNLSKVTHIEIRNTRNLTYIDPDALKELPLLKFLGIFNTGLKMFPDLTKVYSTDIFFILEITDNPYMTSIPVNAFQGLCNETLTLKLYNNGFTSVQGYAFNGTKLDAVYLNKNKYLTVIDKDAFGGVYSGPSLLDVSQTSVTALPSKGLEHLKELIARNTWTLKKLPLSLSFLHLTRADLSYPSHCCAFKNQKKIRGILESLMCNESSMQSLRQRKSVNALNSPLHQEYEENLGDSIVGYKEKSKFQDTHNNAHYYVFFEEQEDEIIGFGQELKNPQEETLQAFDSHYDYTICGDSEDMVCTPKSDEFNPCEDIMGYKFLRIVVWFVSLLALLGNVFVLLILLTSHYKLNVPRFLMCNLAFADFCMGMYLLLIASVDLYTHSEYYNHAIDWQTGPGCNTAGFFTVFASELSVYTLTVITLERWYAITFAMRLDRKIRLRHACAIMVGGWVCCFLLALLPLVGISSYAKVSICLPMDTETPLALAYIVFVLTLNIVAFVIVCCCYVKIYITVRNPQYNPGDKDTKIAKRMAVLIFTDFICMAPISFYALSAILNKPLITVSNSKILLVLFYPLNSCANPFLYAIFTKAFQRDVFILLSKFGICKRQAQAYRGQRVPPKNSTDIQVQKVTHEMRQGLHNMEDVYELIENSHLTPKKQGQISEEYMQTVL

IC50	Structure (SMILES)
< 100 nM	C[C@H]1Oc2nc(NC(=O)NC(C)(C)C)c(C(F)(F)F)cc2N(Cc2cccc(C(F)F)c2)C1=O [Example 374, (R)-1-(tert-butyl)-3-(1-(3-(difluoromethyl)benzyl)-3-methyl-2-oxo-7-(trifluoromethyl)-2,3-dihydro-1H-pyrido[2,3-b][1,4]oxazin-6-yl)urea]
> 1000 nM	CC(c1cc(C(O)C(F)(F)F)ccc1F)n1c(=O)cnc2cc(NC(=O)NC(C)(C)C)ccc21 (stereo not shown) [Example 375, 1-(tert-butyl)-3-(1-(1-(2-fluoro-5-(2,2,2-trifluoro-1-hydroxyethyl)phenyl)ethyl)-2-oxo-1,2-dihydroquinoxalin-6-yl)urea]
< 100 nM	C[C@H]1Oc2nc(NC(=O)NC(C)(C)C)c(C(F)(F)F)cc2N([C@@H](C)c2ccccc2)C1=O [Example 376, 1-(tert-butyl)-3-((R)-3-methyl-2-oxo-1-((S)-1-phenylethyl)-7-(trifluoromethyl)-2,3-dihydro-1H-pyrido[2,3-b][1,4]oxazin-6-yl)urea]
< 100 nM	C[C@@H](c1ccccc1)N1C(=O)CCc2nc(NC(=O)NC(C)(C)C)c(C(F)(F)F)cc21 [Example 377, (S)-1-(tert-butyl)-3-(6-oxo-5-(1-phenylethyl)-3-(trifluoromethyl)-5,6,7,8-tetrahydro-1,5-naphthyridin-2-yl)urea]
